Measured values taken from US20020120098A1, “Enhanced stimulation of erythropoiesis” (priority 1996, published 2002).
“Also recorded” adds a separate entry of the source.

Tests used:
[1] = tested on: erythroid progenitors; assay: Colony formation assay, adult peripheral blood LDMNC: erythroid progenitors overall; type: cell-based, human; conditions: for growth of erythroid progenitors in the absence of Epo, adult blood: 0 U/ml Epo; for erythroid progenitor number, adult blood, 5% O2 and 0.2 U/ml Epo (in words): 5% O2, 0.2 U/ml Epo, over untreated controls under the same conditions
Method: Blood was collected with informed consent from the antecubital vein of healthy adult human volunteers into vacutainers containing 143 USP U/ml sodium heparin. Low density mononuclear cells (LDMNC) were isolated by centrifugation over a density gradient as described in Example 1. Plastic adherent cells were removed by an overnight incubation in a tissue culture flask and the non-adherent cells were placed directly in a CFA. Conditions for the CFA are similar to those described in Examples 1-4.
Mean fold increase in adult blood BFU-E, CFU-E and CFU-GM progenitor number in the presence of reduced Epo (0.2 U/ml) (n=3) at 20% O2 is shown in FIG. 11 with and without (no addition) the additives used in FIG. 9. Results are expressed relative to control cells at 2 U/ml Epo treated only with the respective vehicles (solid line at fold expansion=1.0). […] As with cord blood, CFU-GM numbers were unaffected by reductions in Epo. The addition of HAo or HEMOLINK™ to CFAs containing 0.2 U/ml Epo stimulated ˜4.5- and ˜3.5-fold increases in BFU-E and CFU-E, respectively, compared to untreated controls (no addition), restoring the progenitor number to that obtained at 2 U/ml Epo. Hemin stimulated the greatest increase in BFU-E and CFU-E (˜9- and ˜6-fold, respectively) at 0.2 U/ml Epo versus the untreated controls (no addition). FeCl3 stimulated only a ˜2-fold increase in erythroid progenitor number at 0.2 U/ml Epo.
Mean fold increase in adult blood BFU-E, CFU-E and CFU-GM progenitor number at 5% O2 in the presence of reduced Epo (0.2 U/ml) (n=3) is shown in FIG. 12 with and without the additives used in FIG. 9. Results are expressed relative to control cells at 2 U/ml Epo treated only with the respective vehicles and cultured at ambient oxygen tensions (˜20% O2) for 14 days (solid line at fold expansion=1.0). The number of erythroid progenitors stimulated at 5% O2 and 0.2 U/ml Epo was similar to that obtained with 2.0 U/ml Epo maintained at ambient oxygen tensions (no addition).

[2] = tested on: total erythroid progenitors (BFU-E+CFU-E); assay: Inhibition of succinylacetone (SA) toxicity to erythroid progenitors in CFA; type: cell-based, human; conditions: 0.5 mM SA; 100 μM hemin, 15.6 μM HAo or HEMOLINK, 250 μM FeCl3; ambient O2, 14 days
Method: The effect of the various additives on the inhibitory effect of succinylacetone (SA), a heme synthesis inhibitor, on erythroid progenitors was determined. Primary LDMNC were cultured in methyl cellulose as described in Example 1. Cord blood LDMN were plated in the presence of 1.0 mg/ml HAo (15.6 μM; n=12) or HEMOLINK™ (15.6 μM; n=5), 100 μM hemin (n=12), 250 μM FeCl3 (n=11) or no addition (n=12), in absence or presence of 0.5 mM SA. Cultures were maintained in a humidified chamber at 37° C., 5% CO2, and ambient oxygen tensions for 14 days.
Results are expressed as the number of total erythroid progenitors (BFU-E+CFU-E) present on plates treated with the various additives in the presence of SA relative to the number present on untreated plates (no SA or other addition). Significant differences in the presence of the respective additives compared to no addition (SA only; relative progenitor number=0.31) are as indicated: *p<0.001, **p<0.0001. Significant differences in the presence of the respective additives compared to no treatment (no SA; solid line at relative erythroid progenitor number=1.0) are as indicated: +p<0.05, ++p<0.001.

Molecule | growth of erythroid progenitors in the absence of Epo, adult blood [1] | erythroid progenitor number, adult blood, 5% O2 and 0.2 U/ml Epo (in words) [1] | reversal of inhibitory effect of SA on erythroid progenitors (in words) [2] | fold increase in erythroid progenitor number, adult blood, 0.2 U/ml Epo ([1]; 0.2 U/ml Epo, ~20% O2, 250 μM FeCl3) [fold]
HAo: adult human hemoglobin obtained from red blood cells and purified by displacement chromatography; uncross linked product | could not support the growth of erythroid progenitors in the absence of Epo | stimulated further increases in erythroid progenitor number | partially able to overcome the inhibitory effect of SA; also recorded: could partially reverse the SA toxicity | –
HEMOLINK™: chemically crosslinked hemoglobin prepared by treating human hemoglobin with a polyaldehyde (O-raffinose) | could not support the growth of erythroid progenitors in the absence of Epo | stimulated further increases in erythroid progenitor number | unable to fully restore erythroid progenitor numbers | –
[Cl][Fe]([Cl])[Cl] [FeCl3] | could not support the growth of erythroid progenitors in the absence of Epo | – | less effective than lower concentrations of hemoglobin; also recorded: unable to overcome the inhibitory effect of SA | ~2
C=CC1=C(C)C2=Cc3c(C=C)c(C)c4[n]3[Fe-2]35([Cl])[n]6c(c(C)c(CCC(=O)O)c6=CC6=[N+]3C(=C4)C(C)=C6CCC(=O)O)=CC1=[N+]25 [hemin] | could not support the growth of erythroid progenitors in the absence of Epo | stimulated further increases in erythroid progenitor number | able to completely overcome the SA inhibition of erythroid colonies; also recorded: able to overcome the inhibitory effect of SA | –
